Results from article PMC6811539, “Minute-scale persistence of a GPCR conformation state triggered by non-cognate G protein interactions primes signaling” (Nature Communications, 2019).

How the values were obtained:
[1] = target: T1, β2-AR-mCherry, endogenous Gs (Homo sapiens, UniProt P07550); experiment: activation of endogenous Gs (BODIPY-FL-GTPγS), native membranes expressing β2-AR-mCherry; format: biochemical
T1 construct: expressed in transfected cells; host or cells: native (not urea-stripped) membranes of HEK293T cells transiently transfected with β2-AR-mCherry
Procedure: Membranes were prepared following a published protocol[56] from HEK293T cells transiently transfected with the appropriate DNA (β2-AR-mCherry, β2-mCerulean, […]-mCherry, β2-AR-ICL3 or β2-AR-Sp). Cells were collected in culture medium and washed twice with PBS by centrifugation (300 × g, 3 min, ambient temperature). […] Cells in solution A were lysed gently (30 strokes) in a chilled Dounce homogenizer in the presence of 1.5 μg/mL aprotinin, 1.5 μg/mL leupeptin, 5 μg/mL phenylmethylsulfonyl fluoride (PMSF) and 1 mM dithiothreitol (DTT). Nuclei and intact cells were eliminated by centrifugation at 1000 × g, 5 min, 4 °C. All subsequent centrifugation steps were performed in a TLA100.4 rotor at 135,000 × g, 30 min, 4 °C. […] HEK293T cells in 15 cm dishes were transiently transfected with β2-AR-mCherry or […]-mCherry plasmid as described in the section on “Cells, Cell culture and Transfections,” earlier. Membranes were isolated and treated with urea as detailed (Membrane preparations). Urea treatment denatures and inactivates the endogenous G proteins, allowing the reconstitution of desired combinations of Gα, and βγ subunits and specific C terminus peptides. Reconstitution reactions were assembled on ice. […] The agonist-stimulated change in fluorescence counts was calculated by subtracting the early stimulation spectra from the post-stimulation spectra. Samples treated with BODIPY buffer (no agonist) were processed similarly, to determine the increase in BODIPY fluorescence without agonist stimulation, which represented nonspecific and basal incorporation of the BODIPY in the reaction time. Specific, agonist-induced change in BODIPY fluorescence was calculated by subtracting the increase in buffer-treated samples from the agonist-mediated increase. This change in fluorescence (increase) provided a measure of BODIPY-FL-GTPγS incorporation into the Gα-subunit. Each reaction provided three agonist and three mock readings. […] BODIPY incorporation was monitored as above. […] The experiment was repeated with mock buffer and agonist-specific G-protein activation was calculated.

[2] = extent of photocleavage of PC-Qp by MALDI-MS; format: physicochemical; set-up: Conc. App: unit: μM; settings: for concentration of full-length PC-Qp: 50 μM input, native membranes, MALDI-MS, mean of three experiments; for Conc. App: PC-Qp full length; for PC-Qp full length (fraction, MALDI-MS): plus UV (350 nm, 2 min)
Procedure: Native membranes were prepared from cells expressing β2-mCer and were stored in sucrose-supplemented buffer A as described above (Membrane preparations). […]. Both samples were centrifuged 100,000 × g, 5 min, 4 °C to sediment the membrane. Supernatants were stored on ice for analysis by MS. Control samples containing 50 μM peptide in the buffer were also prepared.
Prior to matrix-assisted laser desorption and ionization time-of-flight MS (MALDI-TOF MS) analysis, the samples were desalted using C18 ZipTips (Millipore Corporation, Billerica, MA). The manufacturer’s standard protocol for peptide clean-up was followed. After elution from the ZipTip, 1 μL of each sample was spotted on a MALDI-TOF 384 spot stainless-steel target (Bruker Daltonics, Billerica, MA) and mixed with 1 μl of α-cyano-4-hydroxy-cinnamic acid (α-CHCA) matrix (15 mg/ml α-CHCA in 50% acetonitrile). Each spot was allowed to dry at room temperature. The target was placed in a Bruker Autoflex Speed MALDI-TOF mass spectrometer (Bruker Daltonics, Billerica, MA) equipped with a Nd-YAG 355 nm pulsed laser. The data were collected in reflectron mode, positive polarity, with an accelerating potential of 19 kV. Each spectrum was the accumulation of 4000 laser shots with complete spot raster of the laser during data collection. External calibration was performed using 0.5 μl α-CHCA and 0.5 μl of peptide standard (part# 206195, Bruker Daltonics, Billerica, MA) with Angiotensin II (monoisotopic mass [MH^+ ] 1046.5418), Angiotensin I (monoisotopic mass [MH^+ ] 1296.6848), SubstanceP (monoisotopic mass [MH^+] 1347.7354), Bombesin (monoisotopic mass [MH^+] 1619.8223), ACTH clip 1–17 (monoisotopic mass [MH^+] 2093.0862), ACTH clip 18–39 (monoisotopic mass [MH^+] 2465.1983), and Somatostatin 28 (monoisotopic mass [MH^+] 3147.4710). The Bruker data files were converted to mzXML files using MSConvertGUI tool in ProteoWizard open-source software. The mzXML files were viewed and analyzed with mMass v5.5 open-source software.

[3] = +UV (second block), replicate #1
[4] = +UV (second block), replicate #2
[5] = +UV (second block), replicate #3
[6] = −UV (first block), replicate #1
[7] = −UV (first block), replicate #2
[8] = −UV (first block), replicate #3

Substance: DTENIRFVFAAVKDTILQLNLKE(Anp)NLV [PC-Qp, photocleavable Qp, Y356 replaced by Anp]
- primed G-protein activation response after UV before mixing ([1]; PC-Qp exposed to UV before mixing with other reactants): lost
- persistence of enhanced G-protein activation after photocleavage ([1]; PC-Qp, UV after addition to membranes): 120 s
- increase in G-protein activation in response to fenoterol ([1]; fenoterol 10 μM, 3 min, Qp 30 μM or PC-Qp 50 μM, no UV): ~ 7 fold
- concentration of full-length PC-Qp ([2]; +UV (350 nm, 2 min)): 4.582 µM
- % cleavage [2, 3]: 90.1408%
- % uncleaved [2, 3]: 9.859%
- % cleavage [2, 4]: 90.4762%
- % uncleaved [2, 4]: 9.524%
- % cleavage [2, 5]: 91.8919%
- % uncleaved [2, 5]: 8.108%
- Conc. App [2, 3]: 4.93
- Conc. App [2, 4]: 4.7619
- Conc. App [2, 5]: 4.054
- Conc. App [2, 6]: 33.3333
- Conc. App [2, 7]: 37.7551
- Conc. App [2, 8]: 30.7692
- PC-Qp full length (fraction, MALDI-MS) ([2]; replicate 1): 0.098
- PC-Qp full length (fraction, MALDI-MS) ([2]; replicate 2): 0.095
- PC-Qp full length (fraction, MALDI-MS) ([2]; replicate 3): 0.081
- % cleavage [2, 6]: 33.3333%
- % uncleaved [2, 6]: 66.6667%
- % cleavage [2, 7]: 24.4898%
- % uncleaved [2, 7]: 75.5102%
- % cleavage [2, 8]: 38.4615%
- % uncleaved [2, 8]: 61.5385%
- concentration of full-length PC-Qp ([2]; −UV): 33.9526 µM
